Source: BindingDB's records for doi:10.1021/jm801242y (Boehringer Ingelheim Pharmaceuticals, 2009)

Biological target: Serine/threonine-protein kinase pim-2 (Homo sapiens, UniProt Q9P1W9)
Assay: Pim Kinase Dose-Response Assay
Conditions: pH 7.5; 22 °C
Method: The activity of Pim kinase was measured in a homogeneous luciferase assay using GST-Pim, biotinylated peptide substrate and a luciferin-luciferase detection reagent to quantify residual ATP. Test compounds were serially diluted for the 10-point concentration response. […] Following incubation, ATP detection reagent was added to the assay plates and the relative light unit (RLU) signal was measured on the Analyst (Molecular Devices) in luminescence mode. The RLU signals were converted to percent of control in dose-response curves. The IC50 was determined as the inflection point parameter.

Chain of Serine/threonine-protein kinase pim-2 (Q9P1W9 whole entry): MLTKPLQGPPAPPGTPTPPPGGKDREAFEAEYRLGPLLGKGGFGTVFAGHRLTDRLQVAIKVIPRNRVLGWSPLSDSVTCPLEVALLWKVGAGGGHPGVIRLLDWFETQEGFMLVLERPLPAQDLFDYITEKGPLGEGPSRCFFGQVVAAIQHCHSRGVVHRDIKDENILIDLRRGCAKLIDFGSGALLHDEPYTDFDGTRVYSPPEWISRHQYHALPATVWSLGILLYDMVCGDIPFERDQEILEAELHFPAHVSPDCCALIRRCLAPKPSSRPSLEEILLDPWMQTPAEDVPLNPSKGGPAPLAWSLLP

Structure (SMILES)	IC50
CN1CCCN(c2cncc(-c3cccc(C=Cc4nnn[nH]4)c3)n2)CC1 [1-methyl-4-(6-{3-[(E)-2-(1H-1,2,3,4-tetrazol-5-yl)ethenyl]phenyl}pyrazin-2-yl)-1,4-diazepane]	160 nM
CN1CCCN(c2cnccn2)CC1 [1-methyl-4-(pyrazin-2-yl)-1,4-diazepane]	> 8000 nM
